Experiment in data set [1]: not given
This is another data set of the same source.

Experiment in data set [2]: not given
This is another data set of the same source.

Experiment in data set [3]: not given
The source holds these as a separate data set.

For orientation: pKa means the negative logarithm of the acid dissociation constant.

Take `COC(=O)c1cccnc1` [METHYL NICOTINATE]: the “log Pe” value is -4.32 cm/s. Further, the “log Kp” value in the data set listed under Homo sapiens (in vivo) is recorded as -6.04 cm/s. For the same molecule, the pKa in “physchem” was 3.84.

Turning to `Oc1cccc(O)c1` [RESORCINOL], the “log Pe” value is given as -5.62 cm/s. Besides, in data set [1], the “log Pe” value is -4.66 cm/s. The molecule also showed a pKa in “physchem” of 9.21.

Consider `CC(=O)[C@H]1CC[C@H]2[C@@H]3CCC4=CC(=O)CC[C@]4(C)[C@H]3CC[C@]12C` [PROGESTERONE], for which the “log Pe” value in data set [1] (not told) is reported as -4.63 cm/s, the “log Pe” value (not told) was -4.56 cm/s and the “log Pe” value in data set [2] (not told) is -4.31 cm/s. Moreover, the “log Kp” value in the data set listed under Homo sapiens (in vivo) is recorded as -5.08 cm/s.

Consider `Cn1c(=O)c2c(ncn2C)n(C)c1=O` [CAFFEINE], for which the “log Kp” value in the data set listed under Homo sapiens is given as -7.56 cm/s.

With `CCC1(c2ccccc2)C(=O)NC(=O)NC1=O` [PHENOBARBITAL], the “log Pe” value is on record as -5.15 cm/s. Besides, the “log Pe” value in data set [1] was -4.16 cm/s. For the same molecule, the “log Kp” value in the data set filed under Homo sapiens is given as -6.9 cm/s. Also, the pKa in the data set “physchem” came out at 7.49.

As to `Nc1cc([N+](=O)[O-])ccc1O` [2-AMINO-4-NITROPHENOL], the “log Pe” value is recorded as -4.84 cm/s. Also, the “log Pe” value in data set [1] is -3.96 cm/s. Moreover, the “log Kp” value in the data set listed under Homo sapiens (in vivo) is recorded as -6.62 cm/s. The pKa in the data set “physchem” amounted to 6.7.

As for `CN[C@@H](C)[C@H](O)c1ccccc1` [EPHEDRINE], the “log Pe” value was -4.82 cm/s. In addition, the “log Kp” value in the data set listed under Homo sapiens (in vivo) is listed as -5.75 cm/s.

Consider `Cc1ccc(C(C)C)c(O)c1` [THYMOL], for which the “log Pe” value is -4.34 cm/s. Further, the “log Pe” value in data set [1] is recorded as -4.23 cm/s. For the same molecule, the “log Kp” value in the data set listed under Homo sapiens (in vivo) is listed as -4.83 cm/s. The “log Pe” value in data set [2] is -4.11 cm/s. In “physchem”, this molecule had a pKa of 10.6. The “log Kp” value in data set [3] is reported as -3.68 cm/s.

`CCc1ccc(O)cc1`: the “log Pe” value is recorded as -4.05 cm/s. Further, the “log Kp” value in the data set filed under Homo sapiens (in vivo) is -5.01 cm/s. Besides, the pKa in “physchem” was determined as 10.2.

With `Oc1ccc2ccccc2c1` [BETANAPHTHOL], the “log Pe” value in data set [1] (not told) was -4.41 cm/s, the “log Pe” value (not told) is -4.19 cm/s and the “log Pe” value in data set [2] (not told) was -4.35 cm/s. Besides, the figures for the “log Kp” value (in the data set filed under Homo sapiens; in data set [3] (not told)) were -5.11 cm/s and -4.08 cm/s, respectively. In “physchem”, this molecule yielded a pKa of 9.4.

With `Oc1ccc(Cl)cc1` [PARACHLOROPHENOL], the “log Pe” value is -4.1 cm/s. Besides, in the data set listed under Homo sapiens (in vivo), the “log Kp” value is recorded as -5 cm/s. This molecule displayed a pKa in the data set “physchem” of 9.26.

Turning to `CC(C(=O)O)c1cccc(C(=O)c2ccccc2)c1` (stereo unspecified) [KETOPROFEN], in the data set filed under Homo sapiens (in vivo), the “log Kp” value is given as -4.7 cm/s.

For `CN1C(C(=O)Nc2ccccn2)=C(O)c2ccccc2S1(=O)=O` [PIROXICAM], the “log Pe” value is reported as -4.35 cm/s. The “log Kp” value in the data set listed under Homo sapiens (in vivo) is listed as -6.02 cm/s.

In the case of `COc1ccc2c(c1)c(CC(=O)O)c(C)n2C(=O)c1ccc(Cl)cc1` [INDOMETHACIN], the “log Pe” value is -4.2 cm/s. Further, in the data set listed under Homo sapiens, the “log Kp” value is given as -5.39 cm/s.

Turning to `O=C(O)Cc1ccccc1Nc1c(Cl)cccc1Cl` [DICLOFENAC], the “log Pe” value is given as -4.33 cm/s. Moreover, in the data set listed under Homo sapiens (in vivo), the “log Kp” value is on record as -5.3 cm/s.

With `Cc1cc(=O)n(-c2ccccc2)n1C` [ANTIPYRINE], the “log Pe” value is given as -6.2 cm/s. Moreover, the “log Pe” value in data set [1] is recorded as -5.4 cm/s. The “log Kp” value in the data set listed under Homo sapiens (in vivo) is recorded as -7.74 cm/s.

As for `CCNc1nc(Cl)nc(NC(C)C)n1` [ATRAZINE], the “log Pe” value was -4.21 cm/s. In addition, the “log Kp” value in the data set listed under Homo sapiens (in vivo) is recorded as -5.56 cm/s. This molecule also registered a pKa in the data set “physchem” of less than 2.

As to `O=[N+]([O-])c1ccc(O)cc1` [P-NITROPHENOL], the “log Pe” value is -4.33 cm/s. The “log Pe” value in data set [1] is -4.09 cm/s. In addition, in the data set filed under Homo sapiens (in vivo), the “log Kp” value is recorded as -5.81 cm/s. The “log Pe” value in data set [2] was -5.24 cm/s. The pKa in “physchem” was found to be 6.9. In addition, the “log Kp” value in data set [3] is listed as -5.08 cm/s.

`c1ccc2cnccc2c1` [ISOQUINOLINE]: the “log Pe” value is -4.05 cm/s. In addition, the “log Kp” value in the data set listed under Homo sapiens (in vivo) was -5.33 cm/s. The molecule further had a pKa in “physchem” of 5.37.

Consider `Oc1ccccc1` [PHENOL], for which the “log Pe” value in data set [1] (not told) is reported as -4 cm/s, the “log Pe” value (not told) is given as -4.14 cm/s and the “log Pe” value in data set [2] (not told) is reported as -4.53 cm/s. For the same molecule, the “log Kp” value in the data set filed under Homo sapiens is given as -5.54 cm/s; in data set [3] (not told), -4.45 cm/s.

As for `O=C(O)c1ccccc1O` [SALICYLIC ACID], the “log Pe” value in data set [1] (not told) was -3.98 cm/s, the “log Pe” value (not told) is recorded as -4.16 cm/s and the “log Pe” value in data set [2] (not told) was -4.74 cm/s. In addition, the “log Kp” value in data set [3] (not told) was -4.7 cm/s.

Consider `O=C(OCc1ccccc1)c1cccnc1` [BENZYL NICOTINATE], for which the “log Pe” value is on record as -4.26 cm/s. Moreover, the “log Pe” value in data set [1] is -4.35 cm/s. Besides, in the data set listed under Homo sapiens (in vivo), the “log Kp” value is -5.35 cm/s. Besides, the “log Pe” value in data set [2] was -4.18 cm/s. The molecule further gave a pKa in the data set “physchem” of 3.94.

In the case of `CN1CCC[C@H]1c1cccnc1` [NICOTINE], the “log Pe” value in data set [1] (not told) was -4.23 cm/s, the “log Pe” value (not told) is given as -4.58 cm/s and the “log Pe” value in data set [2] (not told) is recorded as -4.86 cm/s. Also, the “log Kp” value is -5.26 cm/s in the data set filed under Homo sapiens and -4.29 cm/s in data set [3] (not told). The pKa in the data set “physchem” was determined as 8.08.

(Values after ChEMBL document CHEMBL1138041, “Parallel artificial membrane permeability assay: a new membrane for the fast prediction of passive human skin permeability” (J Med Chem, 2006).)
